Source: patent US20120184536A1, “COMPOSITIONS COMPRISING SPECIFIC UGT INHIBITORS AND METHODS OF USE THEREOF” (The Board of Trustees of the University of Arkansas, priority 2009, published 2012)
Where two headings read alike, the source gives them in different places.

What was measured:
[1] = target: T1, UGT1A10 (Homo sapiens, UniProt Q9HAW8); assay: Ki assays / kinetics and inhibition type, UGT1A10 (Example 2); settings: UGT1A10, Example 2; for Inhibition Type (UDP-GlcUA): UDP-GlcUA varied
T1 sequence (Q9HAW8 26-530): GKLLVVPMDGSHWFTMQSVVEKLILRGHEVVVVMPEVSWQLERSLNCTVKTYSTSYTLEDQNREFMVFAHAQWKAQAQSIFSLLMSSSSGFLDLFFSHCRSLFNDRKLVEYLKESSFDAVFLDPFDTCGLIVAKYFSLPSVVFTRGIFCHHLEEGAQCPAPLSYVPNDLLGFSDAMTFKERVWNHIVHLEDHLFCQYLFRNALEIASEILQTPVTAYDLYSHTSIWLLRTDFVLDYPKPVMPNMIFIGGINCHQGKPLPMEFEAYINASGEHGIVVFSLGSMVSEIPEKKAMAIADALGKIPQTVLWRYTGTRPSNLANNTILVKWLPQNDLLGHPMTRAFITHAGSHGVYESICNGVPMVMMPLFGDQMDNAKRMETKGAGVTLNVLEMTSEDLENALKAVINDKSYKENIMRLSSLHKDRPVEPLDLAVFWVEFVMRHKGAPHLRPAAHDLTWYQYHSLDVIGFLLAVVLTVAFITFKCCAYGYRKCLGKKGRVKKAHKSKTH
Procedure: Recombinant UGT Isoform Incubations—Recombinant human UGT1A10 and it mutants were produced in baculovirus-infected insect cells as previously described (6, 7). Synthesis of inhibitors was described previously (2). For inhibition assays, UGT recombinant membrane protein (5 μg) was incubated in reaction buffer ([…] Tris-HCl (pH 7.4)/5 mM MgCl2/5 mM saccharolactone) and 2% DMSO with substrate, inhibitor and co-substrate, UDP-GlcUA, in a total volume of 30 μl. Substrates were added in DMSO, and controls were run with each assay. No additional detergents or other activators were used in the incubations. Reactions were started by the addition of co-substrate and incubated at 37° C. (90 min for 8-hydroxywarfarin; 30 min for 4-MU; 30 min for E2). […] Reactions were stopped by addition of 40 μl of ethanol, and all incubations were performed in duplicate.
TLC Analysis—For inhibition assays using 4-MU, E2, and 8-OH warfarin as substrates, aliquots (60 μl) of each sample were analyzed using thin layer chromatography (TLC) as described previously (3).
Each sample was centrifuged at 14,000 rpm for 8 min to spin down the protein, and 60 μl of the supernatant was analyzed by HPLC as described previously (8).

[2] = target: T2, UGT2B7 (Homo sapiens, UniProt P16662); assay: Ki assays / kinetics and inhibition type, UGT2B7 (Example 1); settings: UGT2B7
T2 sequence (P16662 24-529): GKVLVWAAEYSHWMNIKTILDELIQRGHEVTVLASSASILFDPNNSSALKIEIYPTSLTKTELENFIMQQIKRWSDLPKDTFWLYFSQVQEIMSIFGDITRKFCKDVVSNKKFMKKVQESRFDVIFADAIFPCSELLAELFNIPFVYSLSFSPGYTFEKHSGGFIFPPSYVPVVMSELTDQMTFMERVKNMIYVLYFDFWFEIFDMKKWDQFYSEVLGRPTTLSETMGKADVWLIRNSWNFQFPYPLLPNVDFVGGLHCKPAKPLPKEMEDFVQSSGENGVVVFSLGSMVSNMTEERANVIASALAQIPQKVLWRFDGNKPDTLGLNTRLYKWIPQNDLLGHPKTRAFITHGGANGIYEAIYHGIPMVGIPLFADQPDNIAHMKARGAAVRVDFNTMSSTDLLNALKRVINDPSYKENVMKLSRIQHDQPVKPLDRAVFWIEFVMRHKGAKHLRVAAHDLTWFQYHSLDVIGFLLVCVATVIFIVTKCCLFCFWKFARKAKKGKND
Procedure: (§1) Recombinant UGT Isoform Incubations—Recombinant human UGT2B7 was produced in HEK239 cells as previously described (6). UGT1A10 was produced as a His-tagged protein in baculovirus-infected Sf9 insect cells as previously described (7, 8). […] For inhibition assays, recombinant UGT membrane protein was incubated in reaction buffer with substrate, inhibitor, and co-substrate as previously described (6, 9).
(§2) Ki assays—UGT2B7 or 1A10 were incubated with a range of at least four different concentrations of inhibitor using varying concentrations of substrate (Ki(substrate)) with a fixed saturating concentration of cosubstrate or with varying concentrations of co-substrate (Ki(UDP-GlcUA)) and a fixed saturating concentration of substrate (FIG. 4).
(§3) The results of these experiments were analyzed and apparent kinetic and inhibition parameters were determined using Prism 4 software (GraphPad, San Diego, Calif.) and DynaFit (BioKin, Watertown, Mass.). TLC and HPLC Analysis—For inhibition assays using all substrates other than 7-OH-warfarin, aliquots (60 μl) of each incubation were analyzed using thin layer chromatography (TLC) as previously described (3). For inhibition assays using 7-OH-warfarin as a substrate, samples were analyzed using HPLC as described previously (10). Primary standards for the 7-OH-warfarin glucuronide were not available; therefore, product concentrations were estimated using the external standard response for the 7-OH-warfarin substrate.

[3] = target: T1, UGT1A10; assay: IC50 assays, inhibition of UGT1A10 glucuronidation (Example 1); type: biochemical; set-up: His; made in house; host or cells: baculovirus-infected Sf9 insect cells
Description: Synthesis of inhibitors was described previously (2).

[4] = target: T1, UGT1A10; type: biochemical; set-up: His; made in house; host or cells: baculovirus-infected Sf9 insect cells
[5] = target: T1, UGT1A10; assay: Ki assays / kinetics and inhibition type, UGT1A10 (Example 1); settings: for Inhibition Type (UDP-GlcUA): UDP-GlcUA varied
Procedure: as §1, §2, §3

[6] = target: T2, UGT2B7; assay: IC50 assays, inhibition of UGT2B7 glucuronidation (Example 1)
Procedure: Recombinant UGT Isoform Incubations—Recombinant human UGT2B7 was produced in HEK239 cells as previously described (6). […] For inhibition assays, recombinant UGT membrane protein was incubated in reaction buffer with substrate, inhibitor, and co-substrate as previously described (6, 9).
IC50 assays—UGT2B7 or 1A10 were incubated with fixed concentrations of each substrate and co-substrate and increasing concentrations of inhibitor.
as §3

Inhibition Type (Substrate) ([1]; 4-MU varied): Competitive | Inhibition Type (Substrate) ([1]; 7-OH warfarin varied): Competitive | Inhibition Type (Substrate) ([1]; 8-OH warfarin varied): Competitive | Inhibition Type (UDP-GlcUA) ([1]; 4-MU): Competitive | Inhibition Type (UDP-GlcUA) ([1]; 7-OH warfarin 3 mM): Mixed | Inhibition Type (UDP-GlcUA) ([1]; 8-OH warfarin): Competitive | Inhibition Type (UDP-GlcUA) ([1]; E2 1 mM): Mixed | Inhibition Type (UDP-GlcUA) ([2]; UDP-GlcUA varied, androsterone): Mixed | Inhibition Type (UDP-GlcUA) ([2]; UDP-GlcUA varied, linoleic acid): Competitive | Inhibition Type (UDP-GlcUA) ([2]; UDP-GlcUA varied, p-nitrophenol): Mixed | Inhibition Type (Substrate) ([2]; androsterone varied): Mixed | Inhibition Type (Substrate) ([2]; linoleic acid varied): Competitive | Inhibition Type (Substrate) ([2]; p-nitrophenol varied): Competitive | Ki ([2]; read-out: Kiapp (Substrate), linoleic acid varied): 4.2 µM | Ki ([2]; read-out: Kiapp (Substrate), p-nitrophenol varied): 7.6 µM | Ki ([2]; read-out: Kiapp (UDP-GlcUA), UDP-GlcUA varied, linoleic acid): 2.5 µM | Ki ([2]; read-out: Kiapp (UDP-GlcUA), UDP-GlcUA varied, p-nitrophenol): 2.1 µM | Ki ([2]; read-out: Ki′app (UDP-GlcUA), UDP-GlcUA varied, p-nitrophenol): 85 µM | IC50 ([3]; 4-MU, read-out: IC50 (Substrate)): 8 ± 1 µM | IC50 ([3]; 7-OH warfarin, read-out: IC50 (Substrate)): 11 ± 2 µM | IC50 ([3]; 8-OH warfarin, read-out: IC50 (Substrate)): 35 ± 4 µM | IC50 ([3]; E2, estimation, some activation at low concentrations, read-out: IC50 (Substrate)): ~200 µM | IC50 ([3]; co-substrate ~2 x Km, 4-MU in excess, read-out: IC50 (UDP-GlcUA)): 15 ± 2 µM | IC50 ([3]; co-substrate ~2 x Km, 7-OH warfarin in excess, read-out: IC50 (UDP-GlcUA)): 4.9 ± 0.2 µM | IC50 ([3]; co-substrate ~2 x Km, 8-OH warfarin in excess, read-out: IC50 (UDP-GlcUA)): 14 ± 1 µM | IC50 ([3]; co-substrate ~2 x Km, E2 in excess, read-out: IC50 (UDP-GlcUA)): 39 ± 11 µM | extent of inhibition of UGT1A10 activity toward 7-OH warfarin [4]: did not fully inhibition | Inhibition Type (Substrate) ([5]; 4-MU varied): noncompetitive and Non- | Inhibition Type (Substrate) ([5]; 7-OH warfarin varied): Competitive | Inhibition Type (Substrate) ([5]; 8-OH warfarin varied): Mixed | Inhibition Type (Substrate) ([5]; E2 varied): Mixed | Inhibition Type (UDP-GlcUA) ([5]; 4-MU): Competitive | Inhibition Type (UDP-GlcUA) ([5]; 7-OH warfarin): Competitive | Inhibition Type (UDP-GlcUA) ([5]; 8-OH warfarin): Competitive | Inhibition Type (UDP-GlcUA) ([5]; E2): Mixed | Ki ([5]; read-out: Kiapp (Substrate), 4-MU varied): 96 µM | Ki ([5]; read-out: Kiapp (Substrate), 7-OH warfarin varied): 8.5 µM | Ki ([5]; read-out: Kiapp (Substrate), 8-OH warfarin varied): 27 µM | Ki ([5]; read-out: Kiapp (Substrate), E2 varied): 200 µM | Ki ([5]; read-out: Kiapp (UDP-GlcUA), UDP-GlcUA varied, 4-MU): 5.7 µM | Ki ([5]; read-out: Kiapp (UDP-GlcUA), UDP-GlcUA varied, 7-OH warfarin): 4.1 µM | Ki ([5]; read-out: Kiapp (UDP-GlcUA), UDP-GlcUA varied, 8-OH warfarin): 26 µM | Ki ([5]; read-out: Kiapp (UDP-GlcUA), UDP-GlcUA varied, E2): 6.9 µM | Ki ([5]; read-out: Ki′app (Substrate), 8-OH warfarin varied): 136 µM | Ki ([5]; read-out: Ki′app (Substrate), E2 varied): 43 µM | Ki ([5]; read-out: Ki′app (UDP-GlcUA), UDP-GlcUA varied, E2): 23 µM | IC50 ([6]; read-out: IC50 (Substrate), linoleic acid ~2 x Km, co-substrate in >5 fold excess): 14 µM | IC50 ([6]; read-out: IC50 (Substrate), p-nitrophenol (pNP) ~2 x Km, co-substrate in >5 fold excess): 75 ± 10 µM
SMILES: CCCCCCCCCC(=O)NC(COC(=O)NS(=O)(=O)OCC1OC(n2ccc(=O)[nH]c2=O)C(O)C1O)Cc1ccccc1 (stereo not drawn) [PP55B]
